Target: α-amylase
Experiment: α-amylase inhibition, starch/DNSA colorimetric assay at […] nm
Format: biochemical

Structure (SMILES) | α-Amylase inhibition method IC50 value [µg/mL]
Cc1ccc(-c2nn(C(=O)c3ccncc3)cc2C(=O)O)cc1 [MPP, 3-(4-methylphenyl)-1-(pyridine-4-carbonyl)-1H-pyrazole-4-carboxylic acid] | 200.94
O=C(O)c1cn(C(=O)c2ccncc2)nc1-c1ccccc1 [PPP, 3-phenyl-1-(pyridine-4-carbonyl)-1H-pyrazole-4-carboxylic acid] | 122.17

Source: publication PMC11411632 (RSC Advances, 2024)
